The values that follow come from patent US11524938B2, “Aromatic sulfonamide derivatives” (Bayer Pharma Aktiengesellschaft, priority 2016, dated 2022).

Format in all cases: cell-based
Test [1] has as its target T1, human P2X4 (Homo sapiens, UniProt Q99571).
T1 sequence (Q99571 1-388): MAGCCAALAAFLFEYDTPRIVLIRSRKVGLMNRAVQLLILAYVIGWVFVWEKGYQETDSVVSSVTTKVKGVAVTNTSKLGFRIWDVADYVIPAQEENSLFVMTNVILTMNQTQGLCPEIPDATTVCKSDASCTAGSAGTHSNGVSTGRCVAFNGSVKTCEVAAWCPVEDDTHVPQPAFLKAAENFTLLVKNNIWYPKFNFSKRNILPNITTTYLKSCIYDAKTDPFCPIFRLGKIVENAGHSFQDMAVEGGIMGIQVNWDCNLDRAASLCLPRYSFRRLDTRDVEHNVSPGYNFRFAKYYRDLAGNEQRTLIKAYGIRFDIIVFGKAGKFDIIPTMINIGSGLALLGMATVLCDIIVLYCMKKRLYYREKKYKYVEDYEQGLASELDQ
Nature of the test: FLIPR assay, human P2X4 1321N1 Astrocytoma cells. The note with it: agonist Mg-ATP 0.5 μM (EC80). How it is done:
(§1) 1321N1 Astrocytoma cells stably expressing human P2X4 or rat P2X4 or mouse P2X4 were plated in Collagen I TC-treated microplate at a seeding density of 10000 cells/well and incubated overnight. P2X4 function was assessed by measuring intracellular calcium changes using the calcium-chelating dye Fluo8-AM (Molecular Devices) on a fluorescent imaging plate reader (FLEX/FLIPR station; Molecular Devices). On the day of the assay, the medium was removed and the cells were incubated for 30 min at 37 °C and 5% CO2 in 30 μL of dye buffer (Hank's balanced salt solution, 10 mM HEPES, 1.8 mM CaCl2, 1 mM MgCl2, 2 mM probenecid, 5 mM D-glucose monohydrate, 5 μM Fluo8-AM, pH=7.4). Compounds diluted in probenecid buffer (Hank's balanced salt solution, 10 mM HEPES, 1.8 mM CaCl2, 1 mM MgCl2, 2 mM probenecid, 5 mM D-glucose monohydrate, pH=7.4) were added in a volume of 10 μL and allowed to incubate for 30 min at room temperature. The final assay DMSO concentration was 0.25%. The agonist, Mg-ATP (Sigma), was added in a volume of 10 μL at a concentration representing the EC80 value. EC80 was determined to be 0.5 μM for human and mouse P2X4 and 5 μM for rat P2X4. The fluorescence was measured for an interval of 120 sec at 2 sec intervals. The excitation and emission wavelengths used to monitor fluorescence were 470-495 nm and 515-575 nm, respectively. The data was analyzed based on the increase in peak relative fluorescence units (RFU) compared to the basal fluorescence and the data was normalized to the agonist control. The compounds were tested in triplicates per plate and mean values were plotted in Excel XLFit to determine IC50 values, percentage of maximal inhibition and the Hill coefficients.

The target of test [2] is T1, human P2X4. Nature of the test: Human P2X4 HEK Cell FLIPR Assay. Conditions: HEK293, HEK293 cells, agonist Bz-ATP at EC80; percentage of maximal inhibition; read-out: Human P2X4 HEK Cells (FLIPR Assay) avg Efficacy [%]. In a few lines:
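Calcium flux read by FLIPR for 120 sec after Bz-ATP challenge at EC80 (established each assay day), following 30 min room-temperature compound preincubation in dye-loaded stable human P2X4 HEK293 cells. Peak RFU over basal normalized to agonist control; IC50, maximal inhibition and Hill coefficient from triplicate means.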

For another test, the target named is T2, mouse P2X4 (Mus musculus, UniProt Q9JJX6).
T2 sequence (Q9JJX6 1-388): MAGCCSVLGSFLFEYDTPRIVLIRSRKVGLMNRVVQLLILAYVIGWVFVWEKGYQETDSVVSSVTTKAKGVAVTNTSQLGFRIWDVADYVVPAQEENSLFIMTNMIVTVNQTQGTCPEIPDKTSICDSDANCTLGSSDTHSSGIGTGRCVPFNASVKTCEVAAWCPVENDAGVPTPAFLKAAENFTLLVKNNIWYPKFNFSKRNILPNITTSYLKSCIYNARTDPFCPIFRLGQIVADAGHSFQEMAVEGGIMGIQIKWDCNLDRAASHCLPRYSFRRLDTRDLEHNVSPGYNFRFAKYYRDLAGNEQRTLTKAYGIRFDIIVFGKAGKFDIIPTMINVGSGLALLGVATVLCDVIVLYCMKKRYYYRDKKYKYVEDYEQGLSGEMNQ
Nature of the test: FLIPR assay, mouse P2X4 1321N1 Astrocytoma cells. Conditions: agonist Mg-ATP 0.5 μM (EC80). How it is done:
as §1

Another test addresses T3, rat P2X4 (Rattus norvegicus, UniProt P51577).
T3 sequence (P51577 1-388): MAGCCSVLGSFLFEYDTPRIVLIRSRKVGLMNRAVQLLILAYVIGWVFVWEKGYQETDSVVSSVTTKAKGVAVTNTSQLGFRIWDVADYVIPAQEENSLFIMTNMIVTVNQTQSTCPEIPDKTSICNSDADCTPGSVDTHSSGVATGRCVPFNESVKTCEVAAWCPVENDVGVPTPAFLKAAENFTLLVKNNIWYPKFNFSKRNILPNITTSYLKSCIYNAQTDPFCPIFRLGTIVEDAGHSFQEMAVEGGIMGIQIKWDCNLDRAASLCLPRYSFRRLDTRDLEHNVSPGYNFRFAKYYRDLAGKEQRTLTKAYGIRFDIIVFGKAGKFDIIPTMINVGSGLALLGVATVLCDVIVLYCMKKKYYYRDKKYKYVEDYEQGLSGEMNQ
Nature of the test: FLIPR assay, rat P2X4 1321N1 Astrocytoma cells. The note with it: agonist Mg-ATP 5 μM (EC80). The procedure:
as §1

Another test concerns the target T4, endogenous P2X4 channels (Homo sapiens, UniProt Q99571).
T4 construct: measure calcium influx through endogenous P2X4 channels into primary human monocytes
T4 sequence (Q99571 1-388): T1 sequence (Q99571 1-388)
Nature of the test: Human Monocyte P2X4 Assay (FLIPR). The note with it: primary human monocytes, 3 μM BzATP, one value per donor. How it is done: The principle of the assay is to measure calcium influx through endogenous P2X4 channels into primary human monocytes, following activation by 2′,3′-O-(4-benzoyl-benzoyl)-ATP (Bz-ATP). Intracellular calcium concentration changes were measured with a Flipr® (Molecular Devices) device using a calcium sensitive dye (Fluo-8). In primary monocytes P2X4 is located at the lysosome membrane, therefore exocytosis has to be triggered to expose P2X4 at the cellular membrane.
Human peripheral blood mononuclear cells (PBMCs) from anticoagulated blood (blood cells, BC) were isolated via density gradient centrifugation. Whole blood was diluted 1:3 with PBS. Samples of 30 mL were layered carefully on top of 15 mL Biocoll (BIOCHROM) in 50 mL centrifuge tubes (Falcon). Tubes were centrifuged at 914×g for 25 min at RT without brake. The PBMC layer was removed with a 10 mL pipette and transferred into tubes with ice-cold PBS in a total volume of 50 mL. Cells were washed twice by pelleting at 300×g at 4° C., for 10 min and for 5 min respectively. PBMCs were re-suspended in 10 mL medium (X-vivo, Biozym Scientific) and counted in a Neubauer chamber.
Monocytes were isolated by negative selection using the Monocyte isolation kit II from Miltenyi (#130-091-153) according to the instructions. Isolation should be done fast and cells and solutions should be kept on ice at any time. PBMCs in batches of 10 exp8 cells were pelleted (300×g, 10 min) and re-suspended with 300 μL MACS buffer in a 50 mL Falcon tube. FcR Blocking reagent (100 μl) and Biotin-Ab (100 μl) were added, mixed and incubated on ice for 10 min. MACS buffer (300 μL) and anti-Biotin Micro-beads (100 μL) were added, mixed and incubated on ice for 15 min. Cells were washed by pelleting (300×g for 10 min) and re-suspended in 500 μL MACS buffer. For each batch one separation column was placed in the MACS separator and rinsed with 3 mL MACS buffer. The cell suspension was added to the column, followed by 3×3 mL MACS buffer for washing, and the eluent containing the monocytes was collected. Cells were pelleted (300×g for 10 min), re-suspended in X-vivo medium and counted. Monocytes were seeded into fibronectin-coated micro-plates (384-well, black, flat transparent bottom; Corning #3848) at a density of 30,000 cells/well in 50 μL, and cultivated over night (37° C., 5% CO2).
Test substances were dissolved in 100% DMSO at a stock concentration of 10 mM and stored at −20° C. in aliquots. Serial dilutions (2×) were prepared in DMSO and diluted 500× with assay buffer to generate the antagonist plate. In the Flipr measurement, 10 μL per well were transferred (4× dilution) and a final top concentrations of 5 μM and 0.05% DMSO were obtained in the assay. Agonist BzATP was stored at 10 mM in aliquots and diluted to an intermediate concentration of 15 μM to generate the agonist plate. In the Flipr measurement, 10 μL per well were transferred (5× dilution) so that a final assay concentration of 3 μM was obtained.
For the experiment, the medium of the cell plate was discarded manually and 70 μL/well loading buffer was added and incubated for 1 h (37° C., 5% CO2). Loading buffer contained HBSS (w/o calcium/magnesium), 10 mM Hepes pH 7.4, 5 μM Fluo-8 (AM) (Tebu-bio) and 50 mM methylamine (Sigma) to trigger exocytosis. Loading buffer was discarded manually and 30 μL/well low-calcium assay buffer (5 mM KCl, 145 mM NaCl, 0.5 mM CaCl2, 13 mM glucose, 10 mM Hepes pH 7.4) was added. The antagonist plate was transferred (10 μL/well) and after 15 min at RT the agonist plate (10 μL/well) was transferred.
Agonist addition was recorded for 240 seconds after a 10 second baseline. For analysis, a baseline correction was applied, and the maximum of the curve was extracted. Data were normalized towards 0% inhibition (signal at 3 μM BzATP) and 100% inhibition (absence of BzATP stimulation) and fitted with a four-parameter sigmoidal inhibition curve using Prism GraphPad to obtain IC50 values.

“And” between values parts separate entries of the source, which are not always exact repeats. Equal entries are not always repeated.

On to `NS(=O)(=O)c1cc(NC(=O)Cc2ccccc2Cl)ccc1-n1cc(C(F)(F)F)cn1` [Example 19, 2-(2-Chlorophenyl)-N-{3-sulfamoyl-4-[4-(trifluoromethyl)-1H-pyrazol-1-yl]phenyl}acetamide], for which the “Human P2X4 1321N1 Astrocytoma Cells (FLIPR Assay) avg Efficacy [%]” value on human P2X4 [1] was found to be 60%. Also, the Emax at human P2X4 [2] was 71%. Besides, the “Mouse P2X4 1321N1 Astrocytoma Cells (FLIPR Assay) avg Efficacy [%]” value on mouse P2X4 came out at 69%. For the same molecule, the “Rat P2X4 1321N1 Astrocytoma Cells (FLIPR Assay) avg Efficacy [%]” value on rat P2X4 was found to be 57%.
Consider `NS(=O)(=O)c1cc(NC(=O)Cc2ccccc2Cl)cnc1-n1cc(C(F)(F)F)cn1` [Example 380, 2-(2-Chlorophenyl)-N-{5-sulfamoyl-6-[4-(trifluoromethyl)-1H-pyrazol-1-yl]pyridin-3-yl}acetamide], for which the Emax at human P2X4 [2] was found to be 69%. At endogenous P2X4 channels, the “Human P2X4 Monocytes (FLIPR Assay) Efficacy for different donors” value is 32% and 107%.
As to `NS(=O)(=O)c1cc(NC(=O)Cc2ccccc2Cl)cnc1-n1cc(Cl)cn1` [Example 387, 2-(2-Chlorophenyl)-N-[6-(4-chloro-1H-pyrazol-1-yl)-5-sulfamoylpyridin-3-yl]acetamide], at human P2X4 [2], the Emax came to 73%. For the same molecule, the “Human P2X4 Monocytes (FLIPR Assay) Efficacy for different donors” value on endogenous P2X4 channels is reported as 51%.
